Structures can show the parent of a compound that is named as a salt.
How the values were obtained:
[1] = system: anemia model mice; assay: In vivo mice anemia model with IL-1β or TNF-α suppressed EPO production (Test Example 3); design: species or system mouse
Experimental: ICR mice (available from CLEA Japan Inc.) were made to be anemia by taking blood samples by 0.3 mL at a time from the orbital vein of the mouse by use of a heparin-coated microcapillary by 4 times in every 12 hours from 2 days before administering the agents. Further, 1.67×10^4 unit/day of mouse IL-1β (Roche Diagnostics) or 3.33×10^5 unit/day of mouse TNF-α (Roche Diagnostics) was injected intraperitoneally on day 0-3 (the first day of administration of agents was defined as […]) to induce a suppressed condition of EPO production. To these mice, Preparation Example 13 compound dissolved in 50% polyethylene glycol solution was administered orally by 1 or 3 mg/kg/day on day 0-5. As a control, 50% polyethylene glycol solution was administered (each group; n=7-15). On day 3 and 6, 0.3 mL of blood was collected, and hematocrit (Ht) value, hemoglobin (Hb) concentration (Celltac a: NIHON KOHDEN), EPO amount (ELISA kit: Roche Diagnostics) were measured. Also, the blood was stained by methylene-blue, and smears were prepared to calculate Reticulocytes value.

[2] = system: Hep3B cells; assay: EPO protein produced by Hep3B cells under hypoxia (1% O2), ELISA (Test Example 1); assay type: cell-based; conditions: 1% O2, 24 hrs
Experimental: (§1) Hep3B cells producing EPO under hypoxic condition were used. The cells were inoculated onto a 100 mm petri dish by 1.5-3.0×10^6. As a culture medium, 10 ml of Dulbecco's Modified Eagles' Medium (DMEM)/10% Fetal Calf Serum (FCS) was used. The next day, the culture medium was exchanged, and compound of Preparation Example 13 (final concentration: 100 nM) was added, then cells were cultured under 1% O2 at 37° C. for 24 hrs. Groups were prepared in which IL-1β (final concentration: 15 U/ml) or TNF-α (final concentration: 220 U/ml), of which EPO production suppressing action is known (Faquin W C, Schneider T J, Goldgerg M A, Blood, 79(8): 1987-94 (1992)), were used solely or in combination with compound of Preparation Example 13 (final concentration: 100 nM). […] The amount of EPO in the supernatant obtained after the culture was measured by ELISA (each group; n=3). The enhancer site and promoter site (144 bp) of a human EPO gene were linked to luciferase reporter vector, which was used for measuring the EPO promoter activity. The EPO promoter activity was evaluated as follows.
(§2) The data obtained were analyzed and evaluated by Student's t-test.

[3] = system: human EPO promoter; assay: EPO promoter activity, luciferase reporter in Hep3B cells, 1% O2 vs 21% O2 (Test Example 1); assay type: cell-based; conditions: 24 hrs
Experimental: as §1
1×10^6 Hep3B cells were inoculated on 30 mm petri dish (4 mL:DMEM/10% FCS), and a reporter gene (2 μg) as well as P-galactosidase gene (1 μg) as an internal standard were transfected into the cells by the lipofectin method. The next day, the culture medium was exchanged and the groups, whose group-composition was similar to the above (control group (containing no agents), IL-1β group (final concentration: 15 U/ml), TNF-α (final concentration: 220 U/ml), compound of Preparation Example 13 (final concentration: 100 nM), or a combination of compound of Preparation Example 13 and IL-1β or TNF-α) were cultured under 1% O2 or 21% O2 (as a control) at 37° C. for 24 hrs (for each group; n=4). The extract of the cells after cultured were prepared, then luciferase activity and β galactosidase activity were measured. The EPO promoter activity was expressed by the formula: […]
as §2

[4] = system: Hep3B cells; assay: EPO produced in Hep3B cell culture medium under 1% oxygen, ELISA kit (Test Example 2); assay type: cell-based; conditions: 24 hrs, 100 nM, control 8.1
Experimental: Hep3B cells were inoculated by 1×10^6 on each of 6 cm dishes, and then cultured for 24 hrs. As a culture medium, 3 mL of DMEM/10% FCS was used. The culture medium was exchanged and the compounds of each of Preparation Examples 13, 23, 29, 36, and 114 were added such that the content thereof was 100 nM final concentration, and they were transferred into the atmosphere of 1% oxygen at 37° C. for further 24 hrs culture thereof. The supernatant of the culture was recovered, and the amount of EPO was measured by ELISA kit (product of Roche Diagnostics) (two cases in each group). Further, cell extract was prepared and protein amount was determined, and corrected it as production amount per protein amount. As a control, groups not containing the compounds are prepared.

[5] = day 3, IL-1β mice, compound 1 mg/kg/day
[6] = day 3, IL-1β mice, compound 3 mg/kg/day
[7] = day 3, IL-1β mice, compound oral 1 mg/kg/day
[8] = day 3, IL-1β mice, compound oral 3 mg/kg/day
[9] = day 3, TNF-α mice, compound 1 mg/kg/day
[10] = day 3, TNF-α mice, compound 3 mg/kg/day
[11] = day 3, TNF-α mice, compound oral 1 mg/kg/day
[12] = day 3, TNF-α mice, compound oral 3 mg/kg/day
[13] = day 6, IL-1β mice, compound oral 1 mg/kg/day
[14] = day 6, IL-1β mice, compound oral 3 mg/kg/day
[15] = day 6, TNF-α mice, compound oral 1 mg/kg/day
[16] = day 6, TNF-α mice, compound oral 3 mg/kg/day

COc1ccc(N(Cc2cncc(-c3cc(OC)c(OC)c(OC)c3)c2)C2CCN(Cc3ccnc(-c4cc(OC)c(OC)c(OC)c4)c3)CC2)cc1 [Preparation Example 13, 4-[N-(4-methoxyphenyl)-N-[[5-(3,4,5-trimethoxyphenyl)pyridin-3-yl]methyl]amino]1-[[2-(3,4,5-trimethoxyphenyl)pyridin-4-yl]methyl]piperidine Trihydrochloride]
EPO amount in serum [1, 5]: 41.8±28.3 mU/mL | reticulocyte value [1, 5]: 36.1±4.5% | EPO amount in serum [1, 6]: 58.9±21.1 mU/mL | reticulocyte value [1, 6]: 38.1±8.1% | Hb amount [1, 7]: 12.7 ± 0.7 g/dL | Ht value [1, 7]: 37.5±2.5% | Hb amount [1, 8]: 12.6 ± 1.0 g/dL | Ht value [1, 8]: 37.5±3.1% | EPO amount in serum [1, 9]: 61.4±70.4 mU/mL | reticulocyte value [1, 9]: 29.1±4.7% | EPO amount in serum [1, 10]: 64.7±92.2 mU/mL | reticulocyte value [1, 10]: 28.9±4.5% | Hb amount [1, 11]: 12.8 ± 0.6 g/dL | Ht value [1, 11]: 38.8±2.0% | Hb amount [1, 12]: 13.1 ± 0.8 g/dL | Ht value [1, 12]: 40.0±2.7% | EPO amount in serum [1, 13]: 22.2±32.8 mU/mL | Hb amount [1, 13]: 14.1 ± 1.1 g/dL | Ht value [1, 13]: 42.6±2.5% | reticulocyte value [1, 13]: 27.1±2.5% | EPO amount in serum [1, 14]: 37.1±31.1 mU/mL | Hb amount [1, 14]: 14.0 ± 0.9 g/dL | Ht value [1, 14]: 43.3±2.8% | reticulocyte value [1, 14]: 30.4±4.0% | EPO amount in serum [1, 15]: 57.4±23.9 mU/mL | Hb amount [1, 15]: 14.0 ± 0.6 g/dL | Ht value [1, 15]: 43.3±2.5% | reticulocyte value [1, 15]: 23.3±3.3% | EPO amount in serum [1, 16]: 69.9±37.8 mU/mL | Hb amount [1, 16]: 13.8 ± 0.5 g/dL | Ht value [1, 16]: 43.2±2.2% | reticulocyte value [1, 16]: 26.8±7.5% | amount of the produced EPO protein relative to control ([2]; compound 100 nM): twice as much as the control | amount of the produced EPO protein ([2]; compound 100 nM alone): 829.8±119.0 mU/mg protein | amount of the produced EPO protein ([2]; compound 100 nM in combination with IL-1β 15 U/ml): 395.0±72.6 mU/mg protein | amount of the produced EPO protein ([2]; compound 100 nM in combination with TNF-α 220 U/ml): 284.8±24.2 mU/mg protein | human EPO promoter activity (HI) ([3]; compound 100 nM alone): 46.1±5.9 fold | human EPO promoter activity (HI) ([3]; compound 100 nM with IL-1β 15 U/ml): 45.5±7.1 fold | human EPO promoter activity (HI) ([3]; compound 100 nM with TNF-α 220 U/ml): 49.5±5.4 fold | Increasing action of EPO production (amount of EPO per protein amount) [4]: 18.2 mU/mg Protein

From US20090143430A1, “ERYTHROPOIETIN PRODUCTION ACCELERATOR” (Kowa Co., Ltd., priority 2002, published 2009)
